14 molecules from patent US10174070B2, “6-substituted estradiol derivatives and methods of use” (Endece LLC, priority 2005, dated 2019) can be followed below.

Assay type in all cases: cell-based
The test system of one experiment is lung (A549). Put plainly: Cell viability (ATP luminescence) IC50 determination, A549. The settings on record: Homo sapiens, A549 cells, 72 hours incubation, vs DMSO vehicle control. The protocol:
(§1) In yet another aspect of the instant invention, the IC50 or the half maximal inhibitory concentration of the candidate compounds were determined to assess drug potency and potential dosing regimens for in vivo use. One of ordinary skill in the art is readily able to ascertain such information using commonly known methodologies. As it has been well described in the art, IC50 represents and measures how much of a particular substance/molecule is needed to inhibit some biological process by 50%. In the instant case, the IC50 of the candidate compounds were determined as the concentration that led to a response of 50% compared to the vehicle control cells.
(§2) The cell lines listed are maintained at approximately 5% CO2, 37° C., 95% relative humidity in the media appropriate for that cell line. The cells are sub-cultured every two to three days and plated in clear bottom 96-well plates at a density of 1×10^4 cells/well and incubated at ca. 5% CO2, 37° C. overnight prior to initiation of the assay. To begin cell viability assays, the media in the cell plate (100 μL) is replaced with fresh media (100 μL). The test articles are serially diluted […] in fresh media in duplicate and added to the cells (100 μL) at final sample concentrations of 0.46, 1.37, 4.12, 12.35, 37.04, 111.1, 333.3 and 1000 μM (≤1% DMSO) in a total volume of 200 μL. Wells containing no cells and wells containing cells lysed with 0.1% Triton-X are used for baseline controls. Tamoxifen is used as a known control for each assay and DMSO only will be run as vehicle control. The samples are incubated at ca. 37° C. in humidified 5% CO2 atmosphere for 72 hours. The plate is monitored once a day during the incubation period, paying special attention to the level of confluence. If the cells approach confluence prior to the end of the 72 hour incubation period, the experiment is terminated and cell viability measured as described below.
(§3) Cell viability is determined using a commercially available kit to determine ATP levels by luminescence. Briefly, the cell plate has the media removed and replaced with 100 μL of fresh media, and the buffer and lyophilized substrate are equilibrated to room temperature. The buffer is used to reconstitute the substrate just prior to addition to the wells of the cell plate (100 μL per well). The plate is placed into the Infinite M200 plate reader, allowed to shake for 10 minutes followed by a 10 minute wait period. The plate is then read using an integration time of 0.5 sec with no attenuation.
(§4) The mean baseline controls (wells with Triton X-100 or no cells) are subtracted from the total luminescence to give the net luminescence for that well. This total is compared to the control of DMSO only. An IC50 is calculated as the concentration that led to a response of 50% compared to the vehicle control cells.

The next experiment has as its system ovary (Ovcar-3). Nature of the experiment: Cell viability (ATP luminescence) IC50 determination, Ovcar-3. Particulars: Homo sapiens, Ovcar-3 cells, 72 hours incubation, vs DMSO vehicle control. The protocol:
as §1, §2, §3, §4

For the next experiment, the system named is Pancreas (Capan-1). Nature of the experiment: Cell viability (ATP luminescence) IC50 determination, Capan-1. Particulars: Homo sapiens, Capan-1 cells, 72 hours incubation, vs DMSO vehicle control. The protocol:
as §1, §2, §3, §4

Experiment [1] deals with cells lines derived from breast, lung, colon, prostate, endometrial and ovarian cancers. Put plainly: In vitro studies of tumor cell growth inhibition in cancer cell lines. Particulars: CYP19 positive (MDA-MB-213 and SK-OV-3) vs CYP19 negative (MCF-7 and NIH:OVCAR-3), where it is reduced.

Each structure is given as a SMILES string.

For the molecule `COC[C@H]1C[C@@H]2[C@H](CC[C@]3(C)C(O)CC[C@@H]23)c2ccc(O)cc21` (stereo partly drawn) [Compound 3, (6S,8R,9S,13S,14S)-6-(methoxymethyl)-13-methyl-7,8,9,11,12,13,14,15,16,17-decahydro-6H-cyclopenta[a]phenanthrene-3,17-diol], the IC50 amounted to 84 µM in the experiment with lung (A549), 94 µM in the experiment on ovary (Ovcar-3) and 168 µM in the experiment on Pancreas (Capan-1).
`COC[C@@H]1C[C@@H]2[C@H](CC[C@]3(C)C(O)CC[C@@H]23)c2ccc(O)cc21` (stereo partly drawn) [Compound 4, (6R,8R,9S,13S,14S)-6-(methoxymethyl)-13-methyl-7,8,9,11,12,13,14,15,16,17-decahydro-6H-cyclopenta[a]phenanthrene-3,17-diol]: the concentration for half-maximal inhibition (IC50) in the experiment on lung (A549) was found to be 70 µM; in the experiment on ovary (Ovcar-3), 100 µM; in the experiment with Pancreas (Capan-1) it was 32 µM.
Regarding `C[C@]12CC[C@@H]3c4ccc(O)cc4[C@H](CO)C[C@H]3[C@@H]1CCC2O` (stereo partly drawn) [Compound 8, (6R,8R,9S,13S,14S)-6-(hydroxymethyl)-13-methyl-7,8,9,11,12,13,14,15,16,17-decahydro-6H-cyclopenta[a]phenanthrene-3,17-diol], the IC50 was 184 µM in the experiment on lung (A549), 221 µM with ovary (Ovcar-3) and 212 µM with Pancreas (Capan-1).
As for `COC[C@@H]1C[C@@H]2[C@H](CC[C@]3(C)C(O)CC[C@@H]23)[C@@]2(C)CCC(O)CC12` (stereo partly drawn) [Compound 9, (6R,8R,9S,10R,13S,14S)-6-(methoxymethyl)-10,13-dimethylhexadecahydro-1H-cyclopenta[a]phenanthrene-3,17-diol], the IC50 with lung (A549), with ovary (Ovcar-3) and in the experiment on Pancreas (Capan-1) was > 1000 µM each time.
As for `C[C@]12CC[C@@H]3c4ccc(O)cc4[C@H](CON)C[C@H]3[C@@H]1CCC2O` (stereo partly drawn) [Compound 10, (6R,8R,9S,13S,14S)-6-((aminooxy)methyl)-13-methyl-7,8,9,11,12,13,14,15,16,17-decahydro-6H-cyclopenta[a]phenanthrene-3,17-diol], the figures for the IC50 in the experiment on lung (A549), in the experiment with ovary (Ovcar-3) and with Pancreas (Capan-1) were 170 µM, 317 µM and 277 µM, respectively.
On to `CO[C@@H]1C[C@@H]2[C@H](CC[C@]3(C)C(O)CC[C@@H]23)c2ccc(O)cc21` (stereo partly drawn) [Compound 18, (6R,8R,9S,13S,14S)-6-methoxy-13-methyl-7,8,9,11,12,13,14,15,16,17-decahydro-6H-cyclopenta[a]phenanthrene-3,17-diol], for which the values for the IC50 in the experiment with lung (A549), with ovary (Ovcar-3) and in the experiment on Pancreas (Capan-1) were 139 µM, 207 µM and 192 µM, respectively.
`COCC[C@@H]1C[C@@H]2[C@H](CC[C@]3(C)C(O)CC[C@@H]23)c2ccc(O)cc21` (stereo partly drawn) [Compound 19, (6S,8R,9S,13S,14S)-6-(2-methoxyethyl)-13-methyl-7,8,9,11,12,13,14,15,16,17-decahydro-6H-cyclopenta[a]phenanthrene-3,17-diol]: the values for the IC50 in the experiment with lung (A549), in the experiment on ovary (Ovcar-3) and in the experiment with Pancreas (Capan-1) were 80 µM, 96 µM and 32 µM, respectively.
Consider `COCCCC[C@@H]1C[C@@H]2[C@H](CC[C@]3(C)C(O)CC[C@@H]23)c2ccc(O)cc21` (stereo partly drawn) [Compound 20, (6R,8R,9S,13S,14S)-6-(4-methoxybutyl)-13-methyl-7,8,9,11,12,13,14,15,16,17-decahydro-6H-cyclopenta[a]phenanthrene-3,17-diol], for which the IC50 in the experiment on lung (A549) stood at 34 µM; in the experiment with ovary (Ovcar-3), 60 µM; in the experiment with Pancreas (Capan-1), 16 µM.
Taken in the same sequence, the figures for `COCCCCCC[C@@H]1C[C@@H]2[C@H](CC[C@]3(C)C(O)CC[C@@H]23)c2ccc(O)cc21` (stereo partly drawn) [Compound 21, (6R,8R,9S,13S,14S)-6-(6-methoxyhexyl)-13-methyl-7,8,9,11,12,13,14,15,16,17-decahydro-6H-cyclopenta[a]phenanthrene-3,17-diol] were 17 µM, 24 µM and 23 µM.
With `CCC(CCCCC[C@@H]1C[C@@H]2[C@H](CC[C@]3(C)C(O)CC[C@@H]23)c2ccc(O)cc21)OC` (stereo partly drawn) [Compound 22, (6R,8R,9S,13S,14S)-6-(6-methoxyoctyl)-13-methyl-7,8,9,11,12,13,14,15,16,17-decahydro-6H-cyclopenta[a]phenanthrene-3,17-diol], the values for the IC50 in the experiment on lung (A549), in the experiment with ovary (Ovcar-3) and in the experiment with Pancreas (Capan-1) were 13 µM, 20 µM and 22 µM, respectively.
For the molecule `CCCCCCCCCCCCCCCCCC(=O)OC1CC[C@H]2[C@@H]3C[C@@H](COC)c4cc(O)ccc4[C@H]3CC[C@]12C` (stereo partly drawn) [Compound 23, (6R,8R,9S,13S,14S)-3-hydroxy-6-(methoxymethyl)-13-methyl-7,8,9,11,12,13,14,15,16,17-decahydro-6H-cyclopenta[a]phenanthren-17-yl stearate], the IC50 is > 1000 µM with lung (A549), > 1000 µM with ovary (Ovcar-3) and 775 µM in the experiment with Pancreas (Capan-1).
As for `COC[C@@H]1C[C@@H]2[C@H](CC[C@]3(C)C(=O)CC[C@@H]23)[C@@]2(C)C=CC(=O)C=C12` [Compound 24, (6R,8R,9S,10R,13S,14S)-6-(methoxymethyl)-10,13-dimethyl-7,8,9,10,11,12,13,14,15,16-decahydro-3H-cyclopenta[a]phenanthrene-3,17(6H)-dione], the “in vitro studies of tumor cell growth, by CYP19 status of the cell line” value in experiment [1] was “highest in cell lines that are CYP19 positive”.
As for `CCCOCCCC[C@@H]1C[C@@H]2[C@H](CC[C@]3(C)C(O)CC[C@@H]23)c2ccc(O)cc21` (stereo partly drawn) [Compound 30, (6R,8R,9S,13S,14S)-13-methyl-6-(4-propoxybutyl)-7,8,9,11,12,13,14,15,16,17-decahydro-6H-cyclopenta[a]phenanthrene-3,17-diol], the half-maximal inhibitory concentration (IC50) is 5 µM in the experiment with lung (A549), 29 µM in the experiment with ovary (Ovcar-3) and 10 µM in the experiment on Pancreas (Capan-1).
Consider `CCOCCCCC[C@@H]1C[C@@H]2[C@H](CC[C@]3(C)C(O)CC[C@@H]23)c2ccc(O)cc21` (stereo partly drawn) [Compound 31, (6R,8R,9S,13S,14S)-13-methyl-6-(5-ethoxypentyl)-7,8,9,11,12,13,14,15,16,17-decahydro-6H-cyclopenta[a]phenanthrene-3,17-diol], for which the results for the IC50 in the experiment on lung (A549), in the experiment with ovary (Ovcar-3) and with Pancreas (Capan-1) were 7 µM, 28 µM and 15 µM, respectively.
